In patent US20090176772A1, “METHOD OF REVERSING LEFT VENTRICULAR REMODELING” (priority 2004, published 2009):

What was measured:
[1] = tested on: dogs with chronic heart failure produced by multiple sequential intracoronary microembolizations; test: Ventriculographic measurements (LV volumes, ejection fraction) in dogs with chronic heart failure; type: in vivo, dog
Description: (§1) The following example examines the effects of ranolazine alone and in combination with an angiotensin converting enzyme (ACE) inhibitor and in combination with a beta-blocker on the progression of left ventricular (LV) dysfunction and LV chamber remodeling in dogs with chronic heart failure produced by multiple sequential intracoronary microembolizations.
(§2) Chronic LV dysfunction and failure in dogs was produced by multiple sequential intracoronary embolizations with polystyrene Latex microspheres (77-109 μm in diameter) as previously described by Sabbah et al. (1991) Am. J. Physiol. 260:H1379-H1384. Coronary microembolizations were performed during cardiac catheterization under general anesthesia and sterile conditions. Anesthesia was induced using a combination of intravenous injections of hydromorphone (0.22 mg/kg), diazepam (0.2-0.6 mg/kg) and sodium pentobarbital 50-100 mg to effect. Plane of anesthesia was maintained throughout the study using 1% to 2% isoflurane. Left and right heart catheterization was performed via a femoral arteriotomy and venotomy. After each catheterization, the vessels were repaired using 6-0 silk and the skin closed with 4-0 suture. Microembolizations were discontinued when LV ejection fraction, determined angiographically, was between 30% and 40%. A period of 2 weeks was allowed after the last embolization to ensure that infarctions produced by the last microembolizations have completely healed and heart failure was established. The study protocol was then performed.
(§3) Healthy, conditioned, purpose-bred mongrel dogs weighing between 19 and 25 kg.
(§4) A randomized, blinded, placebo controlled study design was used. A total of 28 dogs underwent multiple sequential intracoronary microembolizations as described above to produce chronic heart failure. Two weeks after the last embolization, dogs were randomized into 4 study groups (treatment arms). Dogs were randomized to 3 months oral therapy with ranolazine alone (375 mg, bid, n=7), ranolazine (375 mg bid) in combination with metoprolol tartrate (25 mg bid, n=7), ranolazine (375 mg bid) in combination with enalapril (10 mg bid, n=7), or placebo (ranolazine vehicle bid, n=7). Hemodynamic, angiographic, echocardiographic, Doppler and neurohumoral measurements were made prior to randomization (2 weeks after the last embolization) and after completion of therapy (3 months after initiating therapy). After completing the final hemodynamic and angiographic study, dogs were euthanized and the hearts removed and tissue prepared and saved for future histological and biochemical evaluations. The study primary and secondary end-points were as follows:
Left ventriculograms were performed during cardiac catheterization after completion of the hemodynamic measurements. Ventriculograms were performed with the dog placed on its right side and were recorded on 35 mm cine at 30 frames per second during a power injection of 20 ml of contrast material (RENO-M-60, Squibb Diagnostics). Correction for image magnification was made using a radiopaque grid placed at the level of the LV. LV end-systolic and end-diastolic volumes were calculated from angiographic silhouettes using the area length method (4). Premature beats and postextrasystolic beats were excluded from any analysis. LV ejection fraction was calculated as the ratio of the difference of end-diastolic and end-systolic volumes to end-diastolic volume times 100. Stroke volume was calculated as the difference between LV end-diastolic and end-systolic volumes. Cardiac output was calculated as the stroke volume times heart rate and cardiac index as the cardiac output divided by body surface area.
To ensure that all study measures were similar at baseline, comparisons were made between all 4 study groups before any embolizations and at the time of randomization before initiation of therapy. For these comparisons, a one way analysis of variance (ANOVA) was used with a set at 0.05. […]

[2] = tested on: dogs with chronic heart failure produced by multiple sequential intracoronary microembolizations; test: Histomorphometric evaluations of LV tissue of dogs with chronic heart failure; type: in vivo, dog
Description: as §1, §2, §3, §4
On the day of sacrifice, after completion of all hemodynamic and angiographic studies, the dog's chest was opened through a left thoracotomy, the pericardium was opened and the heart rapidly removed and placed in ice-cold, Tris buffer (pH 7.4). Three 2 mm thick transverse slices were obtained from the LV; one slice from the basal third, one from the middle third and one from the apical third and placed in 10% formalin. Transmural blocks were also obtained and rapidly frozen in isopentane cooled to −160° C. by liquid nitrogen and stored at −70° C. until needed. LV tissue samples were also obtained and stored in gluteraldehyde for future scanning and transmission electron microscopic studies.
From each heart, 3 transverse slices one from the basal third, middle third and apical third of the LV, each […], were obtained. For comparison, tissue samples from 7 normal dogs were obtained and prepared in an identical manner. From each transverse slice, transmural tissue blocks were obtained and embedded in paraffin blocks. From each block, 6 μm thick sections were prepared and stained with Gomori trichrome to identify fibrous tissue. […]

[3] = POST: after 3 months of oral therapy bid, mean±SEM
[4] = PRE: at time of randomization, before therapy, mean±SEM
[5] = at the end of 3 months of treatment
[6] = change from pre-treatment to post-treatment (3 months), mean±SEM

For `COc1ccccc1OCC(O)CN1CCN(CC(=O)Nc2c(C)cccc2C)CC1` (racemic) [RAN Alone, (±)-N-(2,6-dimethylphenyl)-4-[2-hydroxy-3-(2-methoxyphenoxy)-propyl]-1-piperazineacetamide], the “CI = cardiac index” value [1, 3] was 2.3 ± 0.2 L/min/m^2, the “CO = cardiac output” value [1, 3] was 1.91 ± .18 L/min and the “EDV = LV end-diastolic volume” value [1, 3] was 65 ± 2 mL. The “EF = LV ejection fraction” value [1, 3] was 37 ± 2 %, the “ESV = LV end-systolic volume” value [1, 3] was 41 ± 2 mL and the “SV = stroke volume” value [1, 3] was 24 ± 1 mL. For the same molecule, the “CI = cardiac index” value [1, 4] was 2.0 ± 0.2 L/min/m^2, the “CO = cardiac output” value [1, 4] was 1.67 ± .11 L/min and the “EDV = LV end-diastolic volume” value [1, 4] was 63 ± 3 mL. The “EF = LV ejection fraction” value [1, 4] was 35 ± 1%, the “ESV = LV end-systolic volume” value [1, 4] was 41 ± 2 mL and the “SV = stroke volume” value [1, 4] was 22 ± 1 mL. For the same molecule, the “LV ejection fraction, intra-group comparison pre- vs post-treatment” value [1, 5] was “increased significantly”, the “LV end-diastolic volume, intra-group comparison pre- vs post-treatment” value [1, 5] was “remained unchanged” and the “LV end-systolic volume, intra-group comparison pre- vs post-treatment” value [1, 5] was “remained unchanged”. The “Δ CI (cardiac index)” value [1, 6] was 0.3 ± 0.1 L/min/m^2, the “Δ CO (cardiac output)” value [1, 6] was 0.24 ± .10 L/min and the “Δ EDV (LV end-diastolic volume)” value [1, 6] was 2 ± 1 mL. For the same molecule, the “Δ EF (LV ejection fraction)” value [1, 6] was 2 ± 1 %, the “Δ ESV (LV end-systolic volume)” value [1, 6] was 0 ± 1 mL and the “Δ SV (stroke volume)” value [1, 6] was 2 ± 1 mL. For the same molecule, the “Ability to reduce LV end-diastolic volume (FIG. 1)” value ([1]; data of Example 1) was “neither ranolazine, enalapril, nor metoprolol were independently able to reduce LV end-diastolic volume”, the “Ability to reduce LV end-systolic volume (FIG. 2)” value ([1]; data of Example 1) was “neither ranolazine, enalapril, nor metoprolol appear to independently reduce LV end-systolic volume” and the “VFRF = volume fraction of replacement fibrosis” value ([2]; LV tissue after 3 months of therapy, mean±SEM, normal dogs 0 ± 0, placebo 14.6 ± 1.2) was 10.5 ± 2.1 %. For the same molecule, the “VFIF = volume fraction of interstitial fibrosis” value ([2]; LV tissue after 3 months of therapy, mean±SEM, normal dogs 3.7 ± 0.1, placebo 13.0 ± 0.7) was 11.0 ± 0.4 %, the “ODD = oxygen diffusion distance” value ([2]; LV tissue after 3 months of therapy, mean±SEM, normal dogs 8.9 ± 0.2, placebo 11.5 ± 0.3) was 10.9 ± 0.2 μm and the “MCSA = myocyte cross-sectional area” value ([2]; LV tissue after 3 months of therapy, mean±SEM, normal dogs 409 ± 10, placebo 772 ± 21) was 685 ± 23 μm2. The “CD = capillary density” value ([2]; LV tissue after 3 months of therapy, mean±SEM, normal dogs 2607 ± 80, placebo 1706 ± 28) was 1832 ± 43 capillaries/mm2 and the “Histomorphometric measures (myocyte cross-sectional area, replacement and interstitial fibrosis, oxygen diffusion distance, capillary density) compared to placebo” value ([2]; after 3 months of therapy) was “significantly improved”.
